This note sets out measurements from paper PMC12967844 (Engineering Microbiology, 2025).

This experiment has as its target PtlI (pentalenene oxygenase) (Streptomyces avermitilis, UniProt Q82IY3). The note with it: E. coli co-expressing penA; substrate made in the cell; endogenous E. coli redox proteins.

PtlI (pentalenene oxygenase), sequence (Q82IY3 whole entry): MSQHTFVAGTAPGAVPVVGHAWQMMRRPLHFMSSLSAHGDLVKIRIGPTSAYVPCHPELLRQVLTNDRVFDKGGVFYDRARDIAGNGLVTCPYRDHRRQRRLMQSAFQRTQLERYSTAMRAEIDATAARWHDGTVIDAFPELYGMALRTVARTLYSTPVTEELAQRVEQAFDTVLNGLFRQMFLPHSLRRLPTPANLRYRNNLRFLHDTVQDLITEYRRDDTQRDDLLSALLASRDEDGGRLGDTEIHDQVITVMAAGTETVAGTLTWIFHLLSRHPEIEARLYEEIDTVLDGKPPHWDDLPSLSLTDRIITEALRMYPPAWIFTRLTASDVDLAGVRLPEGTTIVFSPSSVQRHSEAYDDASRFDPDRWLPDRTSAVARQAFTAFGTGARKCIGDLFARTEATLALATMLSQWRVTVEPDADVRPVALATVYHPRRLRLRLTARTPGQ

Regarding `CC1=C[C@@H]2CC(C)(C)C[C@@]23[C@H](C)CC[C@@H]13` [compound 3, pentalenene], the “GC-MS of culture extracts, heterologous expression in E. coli” value is “PtlI can catalyze a three-step oxidation in the cell”.
